Key:
[1] = molecular target: T1, α1G T-type calcium channel (Homo sapiens, UniProt O43497); experiment: Electrophysiological whole cell patch clamp measurement of T-type calcium channel current in HEK293 cells; type: cell-based; conditions: HEK293 cells expressing α1G; for HEK293cell (% Inhibition) 10 μM: inhibition of peak current; for IC50: read-out: IC50 (a1G)
T1 construct: host or cells: HEK293
Experimental: In the present invention, in order to examine an efficient inhibitor against the T-type calcium channel, a primary assay for T-type calcium channel inhibiting activity was conducted by a high-efficient assay using FDSS6000, wherein mammal HEK293 cell lines (originated from human kidney carcinoma cells) that specifically express α1G of the T-type calcium channel was used for primary assay. Through the primary assay, compounds that show meaningful inhibition effects were selected. The selected compounds were used in a second assay for T-type calcium channel inhibiting activity using an electrophysiological whole cell patch clamp method, wherein mammal HEK293 cell lines (originated from human kidney carcinoma cells) that specifically express α1G of the T-type calcium channel was used for the second assay. Mibefradil, which had been developed as a T-type calcium channel inhibitor, was used as a reference.
10% Fetal bovine serum (FBS) and 1% penicillin/streptomycin (v/v) were added to Dulbecco's modified Eagle's medium (DMEM), to be used as a media solution. The cells were cultured in an incubator under a wet condition of 95% air/5% CO2 and a temperature of 36.5° C. The media solution was refreshed every 3 or 4 days, and the cells were sub-cultured every week. Only the cells that expressed α1G T-type calcium channel were cultured using a G-418 (0.5 mg/ml) solution. The recording of the cells used in the T-type calcium channel activity analysis was conducted at 2-7 days after the cells were culturing on a cover slip coated with poly-L-lysine (0.5 mg/ml) when conducting every sub-culture. For analysis at a single cell level, the T-type calcium channel current was measured by an electrophysiological whole cell patch clamp method using EPC-9 amplifier (HEKA, German).
As solutions for analyzing T-type calcium channel activity, a solution including NaCl 140 mM, CaCl2 2 mM, and HEPES10 mM (pH 7.4, Sigma; 4-(2-hydroxyethyl)piperazine-1-ethanesulfonic acid) was used as an extracellular solution, and a solution including KCl 130 mM, HEPES 10 mM (Sigma), EGTA 11 mM (ethylene glycol-bis(2-aminoethylether)-N,N,N′,N′-tetraacetic acid, Sigma), and MgATP 5 mM (pH 7.4, Sigma) was used as an intracellular solution. The protocol for T-type calcium channel activity that is activated at low voltage is as follows. A micro-glass electrode with resistance of 3-4 MΩ wherein the above-prepared intracellular solution was filled was pricked into a single cell, to make a whole-cell recording mode. Thereafter, the cell membrane potential was fixed to −100 mV, and then the inward current due to the T-type calcium channel activity when hypopolarizing to −30 mV (50 ms duration) was measured every 10 seconds.
Each compound to be tested was dissolved in 100% dimethylsulfoxide (DMSO) to make a 10 mM stock solution. The effect of the compound on the T-type calcium channel current compound was initially examined in the stock solution with the 1000-times diluted concentration of 10 μM (containing 0.1% DMSO) and then examined in the solution with the concentration for IC50 measurement (mostly 0.1 to 100 μM), to obtain an IC50 value. More specifically, the cells were treated in each compound together with the extracellular solution for 30 to 60 seconds, and the inhibition level of peak current induced by the compound was calculated as a percentage, to obtain the % inhibition value as shown in Table 4.

[2] = molecular target: T1, α1G T-type calcium channel; experiment: Assay for % inhibiting activity against T-type calcium channel using FDSS6000 (fluo-3 calcium imaging, KCl activation); type: cell-based; conditions: 10 μM; HEK293 cells stably expressing α1G T-type calcium channel and Kir2.1; compounds of the examples
How it was run: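 Percent inhibition derived from […] area against untreated control (100%), after 75 s compound pre-exposure and 75 mM KCl activation. Cells: HEK293 with stable α1G plus Kir2.1, fluo-3/AM-labelled (5 μM), assayed in pH 7.4 HEPES containing 10 mM CaCl2.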

T1 sequence (O43497 whole entry): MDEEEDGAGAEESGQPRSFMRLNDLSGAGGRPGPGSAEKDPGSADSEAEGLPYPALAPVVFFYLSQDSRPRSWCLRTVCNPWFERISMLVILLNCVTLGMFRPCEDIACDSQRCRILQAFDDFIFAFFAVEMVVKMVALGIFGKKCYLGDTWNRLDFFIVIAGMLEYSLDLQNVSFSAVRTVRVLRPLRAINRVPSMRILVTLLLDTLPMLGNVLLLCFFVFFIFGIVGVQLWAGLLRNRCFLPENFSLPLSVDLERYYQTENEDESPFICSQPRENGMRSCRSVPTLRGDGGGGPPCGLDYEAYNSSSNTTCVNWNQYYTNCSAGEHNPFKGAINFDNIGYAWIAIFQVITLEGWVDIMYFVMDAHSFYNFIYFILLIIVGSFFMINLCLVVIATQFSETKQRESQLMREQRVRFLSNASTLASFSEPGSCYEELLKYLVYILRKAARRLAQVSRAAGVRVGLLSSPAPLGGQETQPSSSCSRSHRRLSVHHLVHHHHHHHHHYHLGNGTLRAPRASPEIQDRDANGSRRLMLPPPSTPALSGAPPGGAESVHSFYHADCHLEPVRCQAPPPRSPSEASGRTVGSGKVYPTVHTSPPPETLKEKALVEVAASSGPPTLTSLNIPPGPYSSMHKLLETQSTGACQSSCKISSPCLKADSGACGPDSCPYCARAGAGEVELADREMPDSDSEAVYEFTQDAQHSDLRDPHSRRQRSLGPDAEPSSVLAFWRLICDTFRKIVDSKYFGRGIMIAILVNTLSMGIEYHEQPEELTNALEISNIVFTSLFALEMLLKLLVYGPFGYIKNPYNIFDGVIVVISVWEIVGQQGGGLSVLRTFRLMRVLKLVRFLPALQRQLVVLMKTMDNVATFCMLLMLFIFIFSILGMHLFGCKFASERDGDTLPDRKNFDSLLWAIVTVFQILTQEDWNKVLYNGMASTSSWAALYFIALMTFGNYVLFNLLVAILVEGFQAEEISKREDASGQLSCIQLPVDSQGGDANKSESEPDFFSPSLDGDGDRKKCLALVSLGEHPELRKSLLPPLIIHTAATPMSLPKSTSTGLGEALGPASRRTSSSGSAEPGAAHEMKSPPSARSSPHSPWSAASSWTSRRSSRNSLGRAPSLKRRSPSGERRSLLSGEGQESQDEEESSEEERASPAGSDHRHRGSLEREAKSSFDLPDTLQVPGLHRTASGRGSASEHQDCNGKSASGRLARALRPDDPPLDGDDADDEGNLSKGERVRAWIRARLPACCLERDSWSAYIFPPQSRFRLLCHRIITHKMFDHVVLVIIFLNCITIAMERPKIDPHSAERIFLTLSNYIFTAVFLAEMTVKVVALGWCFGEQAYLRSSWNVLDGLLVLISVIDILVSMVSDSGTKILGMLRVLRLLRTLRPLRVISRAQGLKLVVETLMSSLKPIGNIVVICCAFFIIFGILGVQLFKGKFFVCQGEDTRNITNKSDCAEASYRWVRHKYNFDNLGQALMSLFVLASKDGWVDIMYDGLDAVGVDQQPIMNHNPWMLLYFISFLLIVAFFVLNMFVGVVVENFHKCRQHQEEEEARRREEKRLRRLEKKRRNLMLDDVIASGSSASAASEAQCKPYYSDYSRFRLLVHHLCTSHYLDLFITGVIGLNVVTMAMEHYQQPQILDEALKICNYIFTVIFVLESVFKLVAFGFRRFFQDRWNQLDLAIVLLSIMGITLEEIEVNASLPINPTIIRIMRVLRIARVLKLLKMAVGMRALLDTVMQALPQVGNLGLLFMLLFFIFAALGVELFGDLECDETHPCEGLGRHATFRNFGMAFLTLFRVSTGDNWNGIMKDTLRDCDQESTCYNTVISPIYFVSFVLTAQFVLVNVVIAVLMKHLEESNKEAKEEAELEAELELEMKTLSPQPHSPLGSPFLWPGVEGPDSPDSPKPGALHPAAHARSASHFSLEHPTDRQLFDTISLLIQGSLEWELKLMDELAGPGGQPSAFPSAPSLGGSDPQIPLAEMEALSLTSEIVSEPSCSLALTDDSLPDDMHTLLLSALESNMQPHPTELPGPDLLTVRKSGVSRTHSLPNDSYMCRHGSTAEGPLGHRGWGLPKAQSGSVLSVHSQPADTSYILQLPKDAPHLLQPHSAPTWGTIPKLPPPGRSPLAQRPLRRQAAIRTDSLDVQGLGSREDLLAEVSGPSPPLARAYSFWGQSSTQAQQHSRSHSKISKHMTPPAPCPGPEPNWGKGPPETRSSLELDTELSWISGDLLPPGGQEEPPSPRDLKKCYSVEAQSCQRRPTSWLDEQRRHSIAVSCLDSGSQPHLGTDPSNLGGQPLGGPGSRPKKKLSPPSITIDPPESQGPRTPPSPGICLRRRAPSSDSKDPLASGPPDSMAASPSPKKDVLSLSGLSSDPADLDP

| Substance | HEK293cell (% Inhibition) 10 μM [1] | IC50 [1] | FDSS (% inhibition)/10uM [2] |
| --- | --- | --- | --- |
| [2-(1-adamantyl)imino-3-methyl-1,3-thiazolidine-4-yl]-N-(4-ethylphenyl)-acetamide hydrochloride [KHG24236] | 94.4 ± 0.6% | 230 ± 20 nM | 69.55% |
| [2-(1-adamantyl)imino-3-methyl-1,3-thiazolidine-4-yl]-N-(4-fluorophenyl)-acetamide hydrochloride [KHG24237] | 91.2 ± 3.1% | 770 ± 30 nM | 74.81% |
| [2-(1-adamantyl)imino-3-methyl-1,3-thiazolidine-4-yl]-N-(4-isopropylphenyl)-acetamide hydrochloride [KHG24243] | 97.0 ± 1.1% | 50 ± 10 nM | 60.9% |
| [2-(1-adamantyl)imino-3-methyl-1,3-thiazolidine-4-yl]-N-(4-methylphenyl)-acetamide hydrochloride [KHG24235] | 93.2 ± 1.9% | 1170 ± 80 nM | 61.65% |
| [2-(1-adamantyl)imino-3-methyl-1,3-thiazolidine-4-yl]-N-(4-phenoxyphenyl)-acetamide hydrochloride [KHG24244] | 90.6 ± 3.6% | 920 ± 80 nM | 53.67% |
| [2-(1-adamantyl)imino-3-methyl-1,3-thiazolidine-4-yl]-N-(4-trifluoromethylphenyl)-acetamide hydrochloride [KHG24240] | 96.2 ± 1.1% | 230 ± 20 nM | 70.68% |
| [2-(1-adamantyl)imino-3-methyl-1,3-thiazolidine-4-yl]-N-(5-chloro-2-fluorophenyl)-acetamide hydrochloride [KHG24242] | 85.2 ± 1.3% | 970 ± 140 nM | 53.38% |
| [2-(1-adamantylimino)-3-cyclopropyl-1,3-thiazolidine-4-yl]-N-(4-isopropylphenyl)-acetamide hydrochloride [KHG24788] | 95.3 ± 0.4% | 310 ± 20 nM | 72.88% |
| [2-(1-adamantylimino)-3-cyclopropyl-1,3-thiazolidine-4-yl]-N-(4-n-butylphenyl)-acetamide hydrochloride [KHG24789] | 95.1 ± 0.7% | 190 ± 20 nM | 78.21% |
| [2-(1-adamantylimino)-3-cyclopropyl-1,3-thiazolidine-4-yl]-N-(4-phenoxyphenyl)-acetamide hydrochloride [KHG24800] | 95.4 ± 0.5% | 430 ± 70 nM | 83.5% |
| [2-(1-adamantylimino)-3-cyclopropyl-1,3-thiazolidine-4-yl]-N-(4-trifluoromethylphenyl)-acetamide hydrochloride [KHG24790] | 94.8 ± 0.9% | 240 ± 10 nM | 73.05% |
| [2-(1-adamantylimino)-3-ethyl-1,3-thiazolidine-4-yl]-N-(4-ethylphenyl)-acetamide hydrochloride [KHG24847] | 95.5 ± 2.7% | 350 ± 10 nM | 72.23% |
| [2-(1-adamantylimino)-3-ethyl-1,3-thiazolidine-4-yl]-N-(4-trifluoromethylphenyl)-acetamide hydrochloride [KHG24821] | 92.3 ± 1.8% | 360 ± 20 nM | 73.69% |
| [2-(1-adamantylimino)-3-n-propyl-1,3-thiazolidine-4-yl]-N-(4-chloro-2-fluorophenyl)-acetamide hydrochloride [KHG24816] | 95.6 ± 0.8% | 510 ± 10 nM | 80.83% |
| [2-(1-adamantylimino)-3-n-propyl-1,3-thiazolidine-4-yl]-N-(4-ethylphenyl)-acetamide hydrochloride [KHG24814] | 96.9 ± 1.8% | 300 ± 10 nM | 76.32% |
| [2-(1-adamantylimino)-3-n-propyl-1,3-thiazolidine-4-yl]-N-(4-fluorophenyl)-acetamide hydrochloride [KHG24811] | 94.8 ± 0.7% | 600 ± 40 nM | 71.82% |

Reference: US7998989B2, “2-Imino-1,3-thiazoline-based compounds and T-type calcium channel inhibitors containing the same” (Korea Institute of Science and Technology, priority 2007, dated 2011)
